Laboratory results taken from paper PMC11191317, “PNSC928, a plant-derived compound, specifically disrupts CtBP2-p300 interaction and reduces inflammation in mice with acute respiratory distress syndrome” (Biology Direct, 2024).

Columns and labels:
CtBP2-p300 interaction = biological target: T1, CtBP2-p300 interaction (Mus musculus, UniProt B2RWS6+P56546); experiment: Immunoprecipitation with anti-CtBP2 in MPAEpiC cells co-treated with LPS and PNSC928; type: cell-based; settings: LPS + PNSC928 0, 11.8, 23.6, and 47.2 µM, 6 h
T1 construct: In vivo immunoprecipitation with anti-CtBP2-coated protein G beads in MPAEpiC cells; endogenous in cells; host or cells: MPAEpiC (mouse pulmonary alveolar epithelial cells)
Method: For LPS treatment, different knockdown (KD) cell lines—Control^KD, CtBP2^KD, p300^KD, and p65^KD, all derived from MPAEpiC—were seeded in 12-well plates and cultured at 37 °C until reaching 80% confluence. The cells were then treated with 200 ng/mL of LPS for 6 h, washed three times with PBS, and subjected to the required experiments. For experiments involving inhibitors of CtBP2, p300, and NF-κB, as well as the compound PNSC928, MPAEpiC, RAW264.7, FL83B, TKPTS, and HL-1 cells were seeded in 12-well plates and cultured at 37 °C to reach 80% confluence. Cells were then cotreated with 200 ng/mL LPS along with varying concentrations of the following chemicals: MTOB (0, 5, 10, or 20 mM), NSC95397 (0, 10, 20, or 40 µM), C646 (0, 3, 6, or 12 µM), A-485 (0, 5, 10, or 20 nM), TPCA1 (0, 150, 300, or 600 nM), BOT64 (0, 1, 2, or 4 µM), or PNSC928 (0, 11.8, 23.6, or 47.2 µM). After 6 h of treatment, cells were washed three times with PBS before proceeding with further experiments. […]
To probe this interaction, we established an AlphaScreen system that utilized GST-p300^BRD and His-CtBP2, binding to donor and acceptor beads, respectively (Fig. 4C). […] In vitro assays assessed the effects of PNSC928 on the CtBP2-p300^BRD interaction. […] Furthermore, we assessed the impact of combined LPS and PNSC928 treatment on the expression of key molecules in the NF-κB signaling pathway.

RAW264.7 cells = experiment: RT-qPCR of CtBP2/p300/NF-κB target genes in LPS-treated RAW264.7 cells (PNSC928); type: cell-based, mouse; settings: LPS + PNSC928 23.6 and 47.2 µM, 6 h
Method: For LPS treatment, different knockdown (KD) cell lines—Control^KD, CtBP2^KD, p300^KD, and p65^KD, all derived from MPAEpiC—were seeded in 12-well plates and cultured at 37 °C until reaching 80% confluence. The cells were then treated with 200 ng/mL of LPS for 6 h, washed three times with PBS, and subjected to the required experiments. For experiments involving inhibitors of CtBP2, p300, and NF-κB, as well as the compound PNSC928, MPAEpiC, RAW264.7, FL83B, TKPTS, and HL-1 cells were seeded in 12-well plates and cultured at 37 °C to reach 80% confluence. […]
RNA was isolated from both cultured cells and mouse lung tissues utilizing the TRIzol Reagent (Invitrogen; Shanghai, China; #15,596,018) in adherence to the manufacturer’s protocol. […] Gene expression quantification was carried out using the SYBR GreenER qPCR SuperMix Universal (Thermo Fisher; #1176202K) in combination with the specific primers delineated in Table S3. […]
Fig. 5 Determination of PNSC928 cytotoxicity and evaluation of PNSC928 effects on the expression levels of CtBP2/p300/NF-κB target genes. […] Cell viability was assessed every 24 h for 5 days. […] Subsequently, RNA isolation and RT-qPCR analysis were performed to quantify mRNA levels of various genes. […]

T1 sequence (P56546 whole entry): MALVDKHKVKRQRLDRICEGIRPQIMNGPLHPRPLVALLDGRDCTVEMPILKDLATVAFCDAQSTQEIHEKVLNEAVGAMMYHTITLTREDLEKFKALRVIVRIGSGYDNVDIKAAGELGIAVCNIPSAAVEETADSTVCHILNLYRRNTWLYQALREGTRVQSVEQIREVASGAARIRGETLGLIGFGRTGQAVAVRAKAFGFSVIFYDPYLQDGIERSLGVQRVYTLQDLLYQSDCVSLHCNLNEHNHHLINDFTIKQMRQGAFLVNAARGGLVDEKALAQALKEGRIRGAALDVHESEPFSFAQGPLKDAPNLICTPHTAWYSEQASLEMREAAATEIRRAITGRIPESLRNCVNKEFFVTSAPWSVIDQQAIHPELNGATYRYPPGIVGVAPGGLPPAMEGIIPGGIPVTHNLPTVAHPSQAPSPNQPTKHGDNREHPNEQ
T1 sequence (B2RWS6 whole entry): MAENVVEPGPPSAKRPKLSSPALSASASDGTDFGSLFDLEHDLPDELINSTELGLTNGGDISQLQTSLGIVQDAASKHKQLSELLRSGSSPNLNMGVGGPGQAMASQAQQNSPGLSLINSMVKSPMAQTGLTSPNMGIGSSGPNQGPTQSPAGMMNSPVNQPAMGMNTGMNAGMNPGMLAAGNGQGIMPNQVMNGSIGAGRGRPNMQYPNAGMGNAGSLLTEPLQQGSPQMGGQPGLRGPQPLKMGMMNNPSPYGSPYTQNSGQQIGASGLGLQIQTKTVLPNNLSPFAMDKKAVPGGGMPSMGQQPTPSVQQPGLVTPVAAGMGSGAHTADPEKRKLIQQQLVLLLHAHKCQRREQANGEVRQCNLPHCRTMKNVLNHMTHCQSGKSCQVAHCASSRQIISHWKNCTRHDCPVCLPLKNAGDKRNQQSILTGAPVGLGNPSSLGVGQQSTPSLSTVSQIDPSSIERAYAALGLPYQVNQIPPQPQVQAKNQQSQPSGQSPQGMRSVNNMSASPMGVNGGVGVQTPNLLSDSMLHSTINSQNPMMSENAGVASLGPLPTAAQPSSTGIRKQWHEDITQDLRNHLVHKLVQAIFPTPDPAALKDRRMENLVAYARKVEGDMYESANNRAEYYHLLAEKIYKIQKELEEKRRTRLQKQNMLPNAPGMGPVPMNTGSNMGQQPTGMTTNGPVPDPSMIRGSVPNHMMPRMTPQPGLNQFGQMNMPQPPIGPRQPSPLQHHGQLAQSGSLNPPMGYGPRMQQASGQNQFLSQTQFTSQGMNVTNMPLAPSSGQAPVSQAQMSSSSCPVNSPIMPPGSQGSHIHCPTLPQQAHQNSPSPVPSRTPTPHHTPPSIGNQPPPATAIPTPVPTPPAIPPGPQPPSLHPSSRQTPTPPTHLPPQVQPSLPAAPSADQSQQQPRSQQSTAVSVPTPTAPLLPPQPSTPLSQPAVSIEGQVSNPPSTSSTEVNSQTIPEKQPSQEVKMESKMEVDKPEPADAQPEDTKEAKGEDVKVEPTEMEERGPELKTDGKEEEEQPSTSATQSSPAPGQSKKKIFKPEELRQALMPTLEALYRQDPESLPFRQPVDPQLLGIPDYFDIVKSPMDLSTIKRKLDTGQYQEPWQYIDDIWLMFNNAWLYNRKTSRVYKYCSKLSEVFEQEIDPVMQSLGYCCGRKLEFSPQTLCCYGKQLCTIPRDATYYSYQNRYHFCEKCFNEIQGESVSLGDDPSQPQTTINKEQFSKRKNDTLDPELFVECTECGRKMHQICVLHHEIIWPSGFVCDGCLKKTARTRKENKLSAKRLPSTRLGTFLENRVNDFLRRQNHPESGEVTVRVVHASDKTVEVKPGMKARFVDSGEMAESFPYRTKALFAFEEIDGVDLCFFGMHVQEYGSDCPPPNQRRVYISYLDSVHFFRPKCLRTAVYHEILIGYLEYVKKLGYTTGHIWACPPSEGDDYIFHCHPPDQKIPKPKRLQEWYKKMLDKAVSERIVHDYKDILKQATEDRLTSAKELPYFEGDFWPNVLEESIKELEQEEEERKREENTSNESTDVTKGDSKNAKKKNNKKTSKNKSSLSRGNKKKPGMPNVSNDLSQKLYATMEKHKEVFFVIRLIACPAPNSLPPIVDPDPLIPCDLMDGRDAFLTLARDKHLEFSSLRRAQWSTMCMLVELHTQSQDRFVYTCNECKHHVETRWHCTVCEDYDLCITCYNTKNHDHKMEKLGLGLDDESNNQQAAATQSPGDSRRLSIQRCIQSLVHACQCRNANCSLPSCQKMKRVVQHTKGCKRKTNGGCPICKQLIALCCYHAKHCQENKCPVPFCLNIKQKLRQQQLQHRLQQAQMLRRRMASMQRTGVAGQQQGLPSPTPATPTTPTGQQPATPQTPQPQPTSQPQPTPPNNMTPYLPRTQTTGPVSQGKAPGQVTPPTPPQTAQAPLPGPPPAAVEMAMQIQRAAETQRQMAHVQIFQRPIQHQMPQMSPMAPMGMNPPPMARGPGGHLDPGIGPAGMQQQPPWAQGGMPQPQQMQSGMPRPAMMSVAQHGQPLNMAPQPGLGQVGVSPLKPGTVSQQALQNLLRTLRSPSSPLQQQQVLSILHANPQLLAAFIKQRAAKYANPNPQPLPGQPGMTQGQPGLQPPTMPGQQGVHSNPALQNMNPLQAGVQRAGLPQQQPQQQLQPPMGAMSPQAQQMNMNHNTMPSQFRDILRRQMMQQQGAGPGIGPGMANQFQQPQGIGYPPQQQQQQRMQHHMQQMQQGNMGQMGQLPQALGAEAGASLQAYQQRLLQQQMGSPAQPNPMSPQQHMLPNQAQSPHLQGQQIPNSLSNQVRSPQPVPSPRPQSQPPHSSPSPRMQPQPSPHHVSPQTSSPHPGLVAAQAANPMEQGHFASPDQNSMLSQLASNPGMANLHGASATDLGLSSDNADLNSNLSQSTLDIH

CC(=CCCC1=CCC(C2COC(=O)C2)OC1O)CCC1=C(C)CCCC1(C)C (stereo not drawn) [PNSC928]
p300^BRD levels pulled down by CtBP2 (CtBP2-p300 interaction): dose-dependent decrease | Expression levels of CDH1, CDKN1A, CDKN2A, CHRD, PAX6, BAX, NOD2, CCL2, CXCL10, CXCL12, MMP1, STAT1, MIP2, CCR5, GM-CSF, VEGF, COX2, and iNOS (RAW264.7 cells): did not alter the expression levels | LPS-induced IL-1B, IL-6, IL-15, IL-18, TNFA, and IFNG expressions (RAW264.7 cells): dose-dependent reversal
